Patent EP4813463A2, “TYK2 INHIBITORS AND COMPOSITIONS AND METHODS THEREOF” (Lynk Pharmaceuticals Co. Ltd., priority 2023, dated 2024)
pIC50: −log10 of the molar value. Read-outs that look alike come from different tables or passages of the source.

Columns and labels:
TYK2-JH2 domain = target: T1, TYK2-JH2 domain (Homo sapiens, UniProt P29597); assay: Binding activity test for JH2 domain of TYK2 (Tb-antibody/tracer FRET); details: for pIC50: JH2 domain enzyme, 60 min at 25°C, then 4°C overnight, read-out: TYK2 JH2 Binding IC50; for JAK1/TYK2 selectivity: ratio of JAK1 JH2 to TYK2 JH2 binding IC50
T1 construct: JAK1-JH2 domain or TYK2-JH2 domain enzyme in assay buffer
T1 sequence (P29597 589-875 limits assumed): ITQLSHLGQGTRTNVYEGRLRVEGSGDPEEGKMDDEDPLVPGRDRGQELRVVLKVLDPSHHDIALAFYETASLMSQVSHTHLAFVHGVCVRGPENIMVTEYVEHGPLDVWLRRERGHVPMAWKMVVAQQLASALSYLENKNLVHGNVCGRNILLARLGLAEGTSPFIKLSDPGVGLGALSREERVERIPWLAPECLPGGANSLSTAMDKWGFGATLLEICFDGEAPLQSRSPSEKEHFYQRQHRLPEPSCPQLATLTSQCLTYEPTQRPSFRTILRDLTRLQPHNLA
How it was run: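 IC50 values (nM) come from TR-FRET readings taken after a 25°C incubation followed by overnight at 4°C. Each well held JH2 domain protein, Tb-antibody, tracer and test compound titrated in 11 threefold steps, with DMSO high and low controls.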

JAK1-JH2 domain = target: T2, JAK1-JH2 domain (Homo sapiens, UniProt P23458); assay: Binding activity test for JH2 domain of JAK1 (Tb-antibody/tracer FRET); details: JH2 domain enzyme; 60 min at 25°C, then 4°C overnight; read-out: JAK1 JH2 Binding IC50
T2 construct: JAK1-JH2 domain or TYK2-JH2 domain enzyme in assay buffer
T2 sequence (P23458 583-855 limits assumed): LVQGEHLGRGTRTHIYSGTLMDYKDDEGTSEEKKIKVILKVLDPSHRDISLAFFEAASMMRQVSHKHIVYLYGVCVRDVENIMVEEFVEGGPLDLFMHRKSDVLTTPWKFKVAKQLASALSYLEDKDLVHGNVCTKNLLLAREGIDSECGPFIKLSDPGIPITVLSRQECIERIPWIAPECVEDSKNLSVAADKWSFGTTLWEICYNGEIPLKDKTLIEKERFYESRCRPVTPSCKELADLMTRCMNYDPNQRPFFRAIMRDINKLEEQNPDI
Procedure: Binding Activity test for JH2 domain of JAK1 and TYK2 […] Add 8μL/well in echo source plate, echo will add 75nL/well with 3-fold serial dilution for 11 points in assay plate. 75nL DMSO for high control and low control. […] For low control, add 5μL/well assay buffer. And then spin down at 1000rpm and centrifuge for 30 seconds. After enzyme system prepared, add 5μL of Tb-antibody solution into each well of assay plate. Spin down at 1000 rpm and centrifuge for 30sec. After Tb-antibody added, also add 5μL of tracer into the assay plate. Spin down at 1000rpm and centrifuge for 30sec. Incubate for […] at 25°C firstly and then continue to incubate the plate at 4°C overnight. Read by envision in FRET mode. The Luminescence value was recorded by a multi-label reader Envision (PerkinElmer). […] Table 2. IC50 on JH2 domain activity (nM)

[1] = tested on: Ba/F3-FL-TYK2-P760L cells; assay: Anti-proliferative assay in engineered Ba/F3 cells (Cell-Titer Glo, 72 h); type: cell-based; details: concentration that causes 50% growth inhibition, read-out: Baf3-FL-T2P760L
How it was run: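 IC50 from luminescent ATP viability after 72 h compound exposure (37 °C, 5% CO2), % inhibition normalised to DMSO-treated cells minus medium blank. IL-3-free Ba/F3-FL-TYK2-P760L (Tel-JAK fusion) cells in 10% FBS RPMI-1640 received 9 three-fold doses, top 20 µM, 0.1% DMSO.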

[2] = Mus musculus, BaF3, 72 h, 72 h compound treatment

SMILES | pIC50 (TYK2-JH2 domain) | JAK1/TYK2 selectivity (TYK2-JH2 domain) | pIC50 (JAK1-JH2 domain) | pIC50 [1, 2] | pIC50 ([1]; 72 h compound treatment) | pIC50 ([1]; Mus musculus, BaF3, 72 h compound treatment)
[2H]C([2H])([2H])C([2H])([2H])C(=O)c1cnc(NC(=O)C2CC2)cc1Nc1nn(C)c2ccc([C@H](O)C(F)(F)F)c(OC)c12 [Example 154, (S)-N-(4-((4-methoxy-1-methyl-5-(2,2,2-trifluoro-1-hydroxyethyl)-1H-indazol-3-yl)amino)-5-(propanoyl-d5)pyridin-2-yl)cyclopropanecarboxamide] | 10.18 | 104.27 | 8.16 | 9.34 | – | –
[2H]C([2H])([2H])NC(=O)c1cnc(NC(=O)C2CC23CC3)cc1Nc1cnn2ccc([C@H](O)C(F)(F)F)c(OC)c12 (single isomer, unassigned) [Example 32B, 4-((4-Methoxy-5-((S)-2,2,2-trifluoro-1-hydroxyethyl)pyrazolo[1,5-a]pyridin-3-yl)amino)-N-(methyl-d3)-6-((R*)-spiro[2.2]pentane-1-carboxamido)nicotinamide] | 9.97 | 106.2 | 7.94 | – | 7.56 | –
COC(=O)c1cnc(Nc2ccn(C)n2)cc1Nc1nn(C)c2ccc([C@H](OC)C(F)(F)F)c(OC)c12 [Example 180, Methyl (S)-4-((4-methoxy-1-methyl-5-(2,2,2-trifluoro-1-methoxyethyl)-1H-indazol-3-yl)amino)-6-((1-methyl-1H-pyrazol-3-yl)amino)nicotinate] | 9.75 | >1696 | < 6.53 | 7.84 | – | –
COc1c([C@H](OC)C(F)(F)F)ccn2ncc(Nc3cc(NC(=O)C4CC4)ncc3OCC#N)c12 [Example 95, (S)-N-(5-(cyanomethoxy)-4-((4-methoxy-5-(2,2,2-trifluoro-1-methoxyethyl)pyrazolo[1,5-a]pyridin-3-yl)amino)pyridin-2-yl)cyclopropanecarboxamide] | 7.17 | >4.37 | < 6.53 | < 5.30 | – | –
CCOC(=O)c1cnc(NC(=O)C2CC2)cc1Nc1cnn2ccc([C@H](OC)C(F)(F)F)c(OC)c12 [Example 88, Ethyl (S)-6-(cyclopropanecarboxamido)-4-((4-methoxy-5-(2,2,2-trifluoro-1-methoxyethyl)pyrazolo[1,5-a]pyridin-3-yl)amino)nicotinate] | 8.77 | >175.18 | < 6.53 | 6.14 | – | –
COCOc1cnc(NC(=O)C2CC2)cc1Nc1cnn2ccc([C@H](OC)C(F)(F)F)c(OC)c12 [Example 94, (S)-N-(4-((4-methoxy-5-(2,2,2-trifluoro-1-methoxyethyl)pyrazolo[1,5-a]pyridin-3-yl)amino)-5-(methoxymethoxy)pyridin-2-yl)cyclopropanecarboxamide] | 6.85 | 1.37 | 6.72 | – | – | 5.33
COC(=O)c1cnc(NC(=O)C2CC2)cc1Nc1n[nH]c2ccc(C(OC)C(F)(F)F)c(OC)c12 (centres unmarked) [Example 113, Methyl 6-(cyclopropanecarboxamido)-4-((4-methoxy-5-(2,2,2-trifluoro-1-methoxyethyl)-1H-indazol-3-yl)amino)nicotinate] | 9.59 | 288.80 | 7.13 | < 6.00 | – | –
[2H]C([2H])([2H])NC(=O)c1nnc(NC(=O)C2CC2)cc1Nc1cccc(-c2ncn(C)n2)c1C(C)O (centres unmarked) [Example 89, 6-(Cyclopropanecarboxamido)-4-((2-(1-hydroxyethyl)-3-(1-methyl-1H-1,2,4-triazol-3-yl)phenyl)amino)-N-(methyl-d3)pyridazine-3-carboxamide] | < 6.53 | – | < 6.53 | < 5.30 | – | –
[2H]C([2H])([2H])CC(=O)c1cnc(NC(=O)C2CC2)cc1Nc1nn(C)c2ccc(C(OC)C(F)(F)F)c(OC)c12 (single isomer, unassigned) [Example 65A, (R*)-N-(4-((4-methoxy-1-methyl-5-(2,2,2-trifluoro-1-methoxyethyl)-1H-indazol-3-yl)amino)-5-(propanoyl-3,3,3-d3)pyridin-2-yl)cyclopropanecarboxamide] | 9.27 | >553.80 | < 6.53 | – | 6.93 | –
[2H]C([2H])([2H])NC(=O)c1nnc(NC(=O)C2CC2)cc1Nc1nn(C)c2ccc([C@@H](OC)C(F)(F)F)c(OC)c12 [Example 51A, (R)-6-(cyclopropanecarboxamido)-4-((4-methoxy-1-methyl-5-(2,2,2-trifluoro-1-methoxyethyl)-1H-indazol-3-yl)amino)-N-(methyl-d3)pyridazine-3-carboxamide] | 9.81 | 40.84 | 8.20 | 7.91 | – | –
CCOC(=O)c1cnc(NC(=O)C2CC2)cc1Nc1cnn2ccc([C@H](O)C(F)(F)F)c(OC)c12 [Example 83, (S)-ethyl 6-(cyclopropanecarboxamido)-4-((4-methoxy-5-(2,2,2-trifluoro-1-hydroxyethyl)pyrazolo[1,5-a]pyridin-3-yl)amino)nicotinate] | 9.12 | >393.28 | < 6.53 | 6.76 | – | –
[2H]C([2H])([2H])OC(=O)c1cnc(NC(=O)C2CC2)cc1Nc1cnn2ccc([C@H](OC([2H])([2H])[2H])C(F)(F)F)c(OC)c12 [Example 80, Methyl-d3 (S)-6-(cyclopropanecarboxamido)-4-((4-methoxy-5-(2,2,2-trifluoro-1-(methoxy-d3)ethyl)pyrazolo[1,5-a]pyridin-3-yl)amino)nicotinate] | 9.59 | 176.08 | 7.34 | 7.05 | – | –
[2H]C([2H])([2H])CC(=O)c1cnc(NC(=O)C2CC2)cc1Nc1nc2ccc(N3CC(OC)C3)cn2n1 [Example 64, N-[4-[[6-(3-methoxyazetidin-1-yl)-[1,2,4]triazolo[1,5-a]pyridin-2-yl]amino]-5-(3,3,3-trideuteriopropanoyl)-2-pyridyl]cyclopropanecarboxamide] | 9.85 | 246 | 7.46 | 7.89 | – | –
COC(=O)c1cnc(NC(=O)C2CC2)cc1Nc1nn(C)c2ccc([C@@H](O)C(F)(F)F)c(OC)c12 [Example 48B, Methyl (R)-6-(cyclopropanecarboxamido)-4-((4-methoxy-1-methyl-5-(2,2,2-trifluoro-1-hydroxyethyl)-1H-indazol-3-yl)amino)nicotinate] | 8.77 | 51.13 | 7.07 | 6.79 | – | –
CNC(=O)c1cnc(NC(=O)C2CC2)cc1Nc1nn(C)c2ccc([C@H](O)C(F)(F)F)c(OC)c12 [Example 189, (S)-6-(Cyclopropanecarboxamido)-4-((4-methoxy-1-methyl-5-(2,2,2-trifluoro-1-hydroxyethyl)-1H-indazol-3-yl)amino)-N-methylnicotinamide] | 10.27 | 64.91 | 8.46 | 9.92 | – | –
COC(=O)c1cnc(Nc2ccc(Cl)cn2)cc1Nc1nn(C)c2ccc([C@H](OC)C(F)(F)F)c(OC)c12 [Example 175, Methyl (S)-6-((5-chloropyridin-2-yl)amino)-4-((4-methoxy-1-methyl-5-(2,2,2-trifluoro-1-methoxyethyl)-1H-indazol-3-yl)amino)nicotinate] | 9.42 | >777.34 | < 6.53 | 7.74 | – | –
[2H]C([2H])([2H])n1nc(Nc2cc(NC(=O)C3CC3)ncc2C(=O)OC)c2c(OC)c([C@@H](OC)C(F)(F)F)ccc21 [Example 52B, Methyl (R)-6-(cyclopropanecarboxamido)-4-((4-methoxy-1-(methyl-d3)-5-(2,2,2-trifluoro-1-methoxyethyl)-1H-indazol-3-yl)amino)nicotinate] | 9.21 | >484.60 | < 6.53 | 6.92 | – | –
[2H]C([2H])([2H])NC(=O)c1cnc(NC(=O)C2CC2)cc1Nc1nn(C)c2ccc(C(OC)C(F)(F)F)c(OC)c12 (centres unmarked) [Example 46, 6-(Cyclopropanecarboxamido)-4-((4-methoxy-1-methyl-5-(2,2,2-trifluoro-1-methoxyethyl)-1H-indazol-3-yl)amino)-N-(methyl-d3)nicotinamide] | 9.95 | 60.31 | 8.17 | 9.21 | – | –
